Assay results taken from PubChem BioAssay AID1259408 (Genetic Toxicology Data Bank (GENE-TOX), 2018).
The source made the active and inactive calls. How the calls were made is not given here.

System: GENE-TOX genotoxicity assays, various organisms and cells
Experiment: GENE-TOX mutagenicity studies
[1] = Species/Cell Type: Nonhuman, Assay Type: Sister-chromatid exchange (SCE) in vivo, Assay Code: SC3+D, Dose Response: With dose response, Evaluation Type: Evaluation B (Post-1980)
[2] = Species/Cell Type: Saccharomyces cerevisiae, Assay Type: Mitotic recombination or gene conversion, Assay Code: YEC+, Evaluation Type: Evaluation A (Pre-1980)

Question: What does the source list for `CC=O`?
Answer: mutagenic call (Species/Cell Type: Escherichia coli polA (W3119 vs P3478), Assay Type: Rec-assay, DNA effects (bacterial DNA repair), Assay Code: RE1+, Evaluation Type: Evaluation A (Pre-1980)): active; positive; mutagenic call (Species/Cell Type: Human lymphocytes, Assay Type: Sister-chromatid exchange (SCE) in vitro, Assay Code: SCL+D, Dose Response: With dose response, Evaluation Type: Evaluation A (Pre-1980)): active; positive; mutagenic call (Species/Cell Type: Human, Assay Type: Sister-chromatid exchange (SCE) in vitro, Assay Code: SC1+D, Dose Response: With dose response, Evaluation Type: Evaluation A (Pre-1980)): active; positive; mutagenic call (Species/Cell Type: Nonhuman, Assay Type: Sister-chromatid exchange (SCE) in vitro, Assay Code: SC2+, Evaluation Type: Evaluation A (Pre-1980)): active; positive; mutagenic call [1]: active; positive

Question: For `CCCCCCCCCCCCCC(=O)O[C@@H]1[C@@H](C)[C@@]2(O)[C@@H](C=C(CO)C[C@]3(OC)C(=O)C(C)=C[C@@H]23)[C@@H]2C(C)(C)[C@]12OC(C)=O`, which mutagenic call (Species/Cell Type: Nonhuman, Assay Type: Sister-chromatid exchange (SCE) in vitro, Assay Code: SC2-, Evaluation Type: Evaluation A (Pre-1980)) is on record?
Answer: The mutagenic call was “inactive; negative”.

Question: And the mutagenic call (Species/Cell Type: Nonhuman, Assay Type: Sister-chromatid exchange (SCE) in vitro, Assay Code: SC2T, Evaluation Type: Evaluation B (Post-1980))?
Answer: Its mutagenic call is “no conclusion”.

Question: Which mutagenic call (Species/Cell Type: Human diploid fibroblasts, Assay Type: Unscheduled DNA synthesis (UDS) in vitro, DNA effects, Assay Code: UDH-, Evaluation Type: Evaluation A (Pre-1980)) does the source give for `S=C([S-])NCCNC(=S)[S-].[Zn+2]` here?
Answer: The mutagenic call was “inactive; negative”.

Question: And the mutagenic call [2]?
Answer: Its mutagenic call is “active; positive”.

Question: And the mutagenic call (Species/Cell Type: Saccharomyces cerevisiae, Assay Type: Mitotic recombination or gene conversion, Assay Code: YEH-, Evaluation Type: Evaluation A (Pre-1980))?
Answer: The mutagenic call was “inactive; negative”.

Question: What does the source list for `CCOC(N)=O`?
Answer: mutagenic call (Species/Cell Type: Drosophila melanogaster, Assay Type: Aneuploidy, sex chromosome gain, chromosome aberrations, Assay Code: DAG-M, Evaluation Type: Evaluation A (Pre-1980)): inactive; negative; mutagenic call (Species/Cell Type: Drosophila melanogaster, Assay Type: Aneuploidy, whole sex chromosome loss, chromosome aberrations, Assay Code: DAC+M, Evaluation Type: Evaluation A (Pre-1980)): active; positive; mutagenic call (Species/Cell Type: Drosophila melanogaster, Assay Type: Sex-linked recessive lethal gene mutation, Assay Code: SRL+, Evaluation Type: Evaluation A (Pre-1980)): active; positive; mutagenic call (Species/Cell Type: Drosophila melanogaster, Sex: Male, Assay Type: Heritable translocation test, chromosome aberrations, Assay Code: DHT+, Evaluation Type: Evaluation A (Pre-1980)): active; positive; mutagenic call (Species/Cell Type: Escherichia coli WP2, Assay Type: Tryptophan reverse gene mutation, Assay Code: WP2-, Evaluation Type: Evaluation A (Pre-1980)): inactive; negative; mutagenic call (Species/Cell Type: Escherichia coli polA (W3110 vs P3478), Assay Type: Rec-assay, DNA effects (bacterial DNA repair), Assay Code: RE2-, Evaluation Type: Evaluation A (Pre-1980)): inactive; negative; mutagenic call (Species/Cell Type: Escherichia coli polA (W3119 vs P3478), Assay Type: Rec-assay, DNA effects (bacterial DNA repair), Assay Code: RE1T, Evaluation Type: Evaluation A (Pre-1980)): no conclusion; mutagenic call (Species/Cell Type: Fischer rat embryo (RLV/1706) cells, Assay Type: Cell transformation, viral enhanced, Assay Code: CTR+, Evaluation Type: Evaluation A (Pre-1980)): active; positive; mutagenic call (Species/Cell Type: Human diploid fibroblasts, Assay Type: Unscheduled DNA synthesis (UDS) in vitro, DNA effects, Assay Code: UDHT, Evaluation Type: Evaluation A (Pre-1980)): no conclusion; mutagenic call (Species/Cell Type: Human lymphocytes, Assay Type: Sister-chromatid exchange (SCE) in vitro, Assay Code: SCL+D, Dose Response: With dose response, Evaluation Type: Evaluation B (Post-1980)): active; positive; mutagenic call (Species/Cell Type: Human, Assay Type: Sister-chromatid exchange (SCE) in vitro, Assay Code: SC1+D, Dose Response: With dose response, Evaluation Type: Evaluation B (Post-1980)): active; positive; mutagenic call (Species/Cell Type: Mammalian polychromatic erythrocytes, Assay Type: Micronucleus test, chromosome aberrations, Assay Code: MNT+, Evaluation Type: Evaluation A (Pre-1980)): active; positive; mutagenic call (Species/Cell Type: Mouse embryo (AKR/ME) cells, Assay Type: Cell transformation, Assay Code: CTK+, Evaluation Type: Evaluation A (Pre-1980)): active; positive; mutagenic call (Species/Cell Type: Mouse, Sex: Male, Assay Type: Sperm morphology, Assay Code: SPI-, Evaluation Type: Evaluation A (Pre-1980)): inactive; negative; mutagenic call (Species/Cell Type: Neurospora crassa, Assay Type: Reverse gene mutation, Assay Code: NER+, Evaluation Type: Evaluation A (Pre-1980)): active; positive; call (Species/Cell Type: Nonhuman, Assay Type: In vivo carcinogenicity studies, Assay Code: CCG+, Evaluation Type: Evaluation A (Pre-1980)): active; positive; mutagenic call (Species/Cell Type: Nonhuman, Assay Type: Sister-chromatid exchange (SCE) in vitro, Assay Code: SC2+D, Dose Response: With dose response, Evaluation Type: Evaluation A (Pre-1980)): active; positive; mutagenic call [1]: active; positive; mutagenic call [2]: active; positive; mutagenic call (Species/Cell Type: Saccharomyces cerevisiae, Assay Type: Mitotic recombination or gene conversion, Assay Code: YEH-*, Activation: With metabolic activation, Evaluation Type: Evaluation A (Pre-1980)): inactive; negative; mutagenic call (Species/Cell Type: Salmonella typhimurium (one or more of the five standard strains: TA98, TA100, TA1535, TA1537, and TA1538), Assay Type: Histidine reverse gene mutation, Ames assay, Assay Code: SAL-, Evaluation Type: Evaluation A (Pre-1980)): inactive; negative; mutagenic call (Species/Cell Type: Salmonella typhimurium, Assay Type: Forward and reverse gene mutation, host-mediated assay, Assay Code: HMA-, Evaluation Type: Evaluation A (Pre-1980)): inactive; negative; mutagenic call (Species/Cell Type: Syrian hamster embryo (SHE) cells, Assay Type: Cell transformation, clonal assay, Assay Code: CTC+*, Activation: With metabolic activation, Evaluation Type: Evaluation A (Pre-1980)): active; positive
